# Tested on: human bone marrow-derived MSCs
# Test: Real-time PCR of cardiac-specific marker genes after MSCs are treated with HDAC inhibitors
# Assay type: cell-based
# Settings: 24 hours, TSA 0.5 μM, VPA 3 mM, AC 1 and 3 μM, vs vehicle, FIG. 1
# Procedure: First, MSCs prepared in Example 1 were cultured for one day in a 6-well culture plate containing HIGH glucose/DMEM (4 mM L-glutamine, 4500 mg/L glucose, sodium pyruvate, 10% FBS, 100 U/ml penicillin, 100 μg/ml streptomycin), and then treated with TSA (0.5 μM), VPA (3 mM), and AC (1 and 3 μM) for 24 hours.
# Afterward, the cell culture medium was removed from each sample, washed with PBS once, and homogenized with TRIzol for 10 minutes at room temperature, followed by centrifugation after the addition of chloroform. A supernatant obtained by centrifugation was harvested to purify total RNA, and cDNA was synthesized using a reverse transcriptase (MMLV) to be used as a template, followed by real-time PCR performed using the QuantiTect SYBR Green PCR kit. Accordingly, expression levels of the cardiac-specific marker genes (GATA4, Nkx2.5 and cTnI) were confirmed.
SMILES,mRNA expression of GATA4,mRNA expression of Nkx2.5,mRNA expression of cTnI
"CC(/C=C/C(=O)NO)=C\[C@@H](C)C(=O)c1ccc(N(C)C)cc1 [TSA, trichostatin A]",no specific effect,no specific effect,had significance
"CCCC(CCC)C(=O)O [VPA, valproic acid]",promoted,–,promoted

# Reference: US11162077B2, “Apicidin-containing composition for inducing differentiation of mesenchymal stem cells into cardiac-committed cells” (CHONNAM NATIONAL UNIVERSITY HOSPITAL, priority 2015, dated 2021)
